Consider 3 compounds from PMC5320485, “4-isopropylcyclohexanol has potential analgesic effects through the inhibition of anoctamin 1, TRPV1 and TRPA1 channel activities” (Scientific Reports, 2017).

Structures are written as SMILES.

Type in all cases: cell-based
Assay [1] deals with T1, mouse anoctamin 1 (mANO1) (Mus musculus, UniProt Q8BHY3).
T1 construct: gene Ano1
T1 sequence (Q8BHY3 1-960): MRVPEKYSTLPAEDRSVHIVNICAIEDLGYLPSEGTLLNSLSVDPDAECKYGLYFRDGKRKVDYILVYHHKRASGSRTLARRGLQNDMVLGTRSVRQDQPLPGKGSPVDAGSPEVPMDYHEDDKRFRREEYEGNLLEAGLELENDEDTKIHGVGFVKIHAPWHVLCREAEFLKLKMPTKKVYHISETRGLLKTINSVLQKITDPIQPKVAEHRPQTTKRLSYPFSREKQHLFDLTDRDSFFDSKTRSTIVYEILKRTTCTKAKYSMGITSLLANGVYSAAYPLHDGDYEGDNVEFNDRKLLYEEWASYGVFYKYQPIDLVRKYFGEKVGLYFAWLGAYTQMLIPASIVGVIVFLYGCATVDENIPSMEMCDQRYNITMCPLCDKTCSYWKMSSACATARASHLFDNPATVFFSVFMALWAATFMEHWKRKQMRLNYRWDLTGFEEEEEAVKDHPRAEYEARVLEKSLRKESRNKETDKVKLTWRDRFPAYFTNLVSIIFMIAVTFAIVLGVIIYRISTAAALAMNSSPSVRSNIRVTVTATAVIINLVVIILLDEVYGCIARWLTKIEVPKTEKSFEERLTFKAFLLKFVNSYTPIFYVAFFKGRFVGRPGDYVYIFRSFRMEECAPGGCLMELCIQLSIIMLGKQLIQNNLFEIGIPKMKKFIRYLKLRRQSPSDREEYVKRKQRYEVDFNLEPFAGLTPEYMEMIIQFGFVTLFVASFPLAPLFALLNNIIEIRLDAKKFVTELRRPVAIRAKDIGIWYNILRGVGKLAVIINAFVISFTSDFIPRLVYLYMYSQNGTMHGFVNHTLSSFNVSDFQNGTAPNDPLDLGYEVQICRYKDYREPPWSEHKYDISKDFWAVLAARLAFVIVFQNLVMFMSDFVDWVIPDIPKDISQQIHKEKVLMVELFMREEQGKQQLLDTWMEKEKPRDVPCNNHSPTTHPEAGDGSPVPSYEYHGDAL
The experiment in a line: whole-cell patch clamp in HEK293T cells at […].

Assay [2] addresses T1, mouse anoctamin 1 (mANO1). The experiment in a line: whole-cell patch clamp in HEK293T cells, dose-response at −[…] mV.
In the next assay the target is human TRPA1 (hTRPA1) (Homo sapiens, UniProt O75762). As to the kind of experiment: whole-cell patch clamp in HEK293T cells; inhibits AITC currents at […] and weakly activates alone.
Sequence of human TRPA1 (hTRPA1) (O75762 whole entry): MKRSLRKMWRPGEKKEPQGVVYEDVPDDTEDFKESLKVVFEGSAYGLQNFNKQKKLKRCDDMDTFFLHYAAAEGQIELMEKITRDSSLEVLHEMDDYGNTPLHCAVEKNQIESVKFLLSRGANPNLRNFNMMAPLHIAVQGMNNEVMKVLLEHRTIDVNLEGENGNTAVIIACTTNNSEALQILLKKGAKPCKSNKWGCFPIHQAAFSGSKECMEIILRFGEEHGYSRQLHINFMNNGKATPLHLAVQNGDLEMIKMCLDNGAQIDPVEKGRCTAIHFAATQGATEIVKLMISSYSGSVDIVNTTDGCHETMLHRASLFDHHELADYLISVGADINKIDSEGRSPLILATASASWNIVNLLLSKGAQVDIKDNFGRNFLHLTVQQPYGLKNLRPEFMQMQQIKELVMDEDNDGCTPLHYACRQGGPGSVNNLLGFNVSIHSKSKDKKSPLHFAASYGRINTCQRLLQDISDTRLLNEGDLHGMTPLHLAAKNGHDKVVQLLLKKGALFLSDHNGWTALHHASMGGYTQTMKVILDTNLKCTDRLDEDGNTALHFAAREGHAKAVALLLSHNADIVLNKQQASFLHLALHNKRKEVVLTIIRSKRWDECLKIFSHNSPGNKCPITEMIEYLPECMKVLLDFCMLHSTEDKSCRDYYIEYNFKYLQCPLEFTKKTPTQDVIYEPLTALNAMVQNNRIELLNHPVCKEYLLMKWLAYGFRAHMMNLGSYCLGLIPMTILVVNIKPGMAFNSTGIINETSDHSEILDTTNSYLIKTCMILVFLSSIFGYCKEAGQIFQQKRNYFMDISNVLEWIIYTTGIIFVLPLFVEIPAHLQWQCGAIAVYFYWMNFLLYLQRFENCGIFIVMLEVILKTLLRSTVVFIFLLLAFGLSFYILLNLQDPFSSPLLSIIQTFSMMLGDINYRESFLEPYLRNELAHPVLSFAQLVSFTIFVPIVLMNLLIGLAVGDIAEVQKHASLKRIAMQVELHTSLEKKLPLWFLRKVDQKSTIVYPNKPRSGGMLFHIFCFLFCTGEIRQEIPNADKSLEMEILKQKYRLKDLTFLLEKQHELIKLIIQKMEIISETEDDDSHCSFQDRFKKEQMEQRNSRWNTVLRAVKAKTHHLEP

Regarding `CC(C)C1CCCCC1` [iPr-CyH, isopropylcyclohexane], in assay [1], the “whole-cell patch clamp in HEK293T cells at 3 mM” value is recorded as “isopropylcyclohexane (iPr-CyH) strongly inhibited mANO1 currents to a similar degree as that seen for d-menthol”.
Turning to `CC(C)[C@@H]1CC[C@@H](C)C[C@H]1O` [l-menthol], the IC50 in assay [2] is 441 µM.
Regarding `CC(C)C1CCC(O)CC1` (stereo not shown) [4-iPr-CyH-OH, 4-isopropylcyclohexanol], the IC50 in assay [2] worked out at 1090 µM. Further, the “whole-cell patch clamp in HEK293T cells; inhibits AITC currents at 3 mM and weak” value at human TRPA1 (hTRPA1) is reported as 4-iPr-CyH-OH did not activate hTRPV1 (Fig. 5d), yet did slightly but significantly activate hTRPA1.
